Test: gradient 5% acetonitrile 3 min, to 50% in 2 min, to 85% in 15 min, held 3 min, 100 µL/min
Details: column: Zorbax Extend-C18 2.1 x 50 mm; eluents: water / acetonitrile, 0.1% formic acid
Method in brief: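 A Zorbax Extend-C18 column (2.1 × 50 mm, 1.8 μm) run at 100 μL/min with water and acetonitrile, both containing 0.1% formic acid, separated mixtures of ~100 pure standards. The HPLC was coupled to a quadrupole time-of-flight mass spectrometer operated in positive and negative ionization mode, with dead and dwell volumes of 40 μL and 900 μL. Each retention time was taken from a computationally picked adduct peak that was then manually inspected.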

| SMILES | RP-LC retention time [s] |
| --- | --- |
| NC(=O)C1CCN(c2ccc3cccc(OCC(=O)NCc4ccco4)c3n2)CC1 | 552 |
| CCc1ccc(NC(=O)N2CCN(c3cnn4c(C)nnc4c3)CC2)cc1 | 649 |
| CC(O)c1nc2ccccc2n1CC(=O)N(c1ccccc1)C(C)C (configuration not stated) | 647 |
| CC1(C(=O)NCc2ccc(F)cc2)CCCN(C(=O)NC2COc3ccccc3C2)C1 (configuration not stated) | 875 |
| O=C(c1ccc(Cl)cc1)N(CC1CCOC1)C1CC1 (configuration not stated) | 791 |
| COc1ccc(NC(=O)N2CCN(c3ccc(=O)n(-c4ccc(C)cc4)n3)CC2)c(OC)c1 | 804 |
| O=C(Cn1c2ccccc2c2ncn(Cc3nc(-c4ccccc4)no3)c(=O)c21)NC1CCCC1 | 912 |
| CCC(C)N1C(=O)CN(C2CCCCCC2)C(=O)C1c1ccccc1F (configuration not stated) | 1020 |
| Cc1ccc(CNC(=O)Cn2nc3c(Oc4cc(C)cc(C)c4)nccn3c2=O)cc1 | 943 |
| Cc1noc(C2(NC(=O)c3sccc3C)CCCCC2)n1 | 882 |
| O=C1C(N2CCN(S(=O)(=O)c3cc(F)cc(F)c3)CC2)CCN1Cc1ccccn1 (configuration not stated) | 601 |
| CC(C)NC(=O)c1ccc2c(c1)CCCN2S(=O)(=O)c1ccccc1 | 878 |
| CCOC(=O)c1[nH]c(C)c(C(=O)C(C)N(C(=O)c2cccc(F)c2)C(C)C)c1C (configuration not stated) | 883 |
| CC(CNC(=O)Cn1c(=O)n(C(C)C)c2ccc(S(=O)(=O)N3CCCC3)cc21)c1ccccc1 (configuration not stated) | 905 |
| CC(NC(=O)c1cc2ccccc2[nH]1)C(=O)N1CCN(c2ccccn2)CC1 (configuration not stated) | 612 |
| Cc1ncsc1CN1CCCC(c2nncn2-c2ccccc2)C1 (configuration not stated) | 496 |
| CCn1c(=O)n(CC(=O)N2CCOCC2)c(=O)c2cnc(-c3ccc(Cl)cc3)nc21 | 934 |
| CN1CCN(CCNC(=O)c2ccc3c(c2)N(S(=O)(=O)c2ccccc2F)CC3)CC1 | 617 |
| O=C(N[C@@H]1CN(c2ncccn2)C[C@H]1CO)c1nccc2ccccc12 | 613 |
| Cc1ccc(CSc2nccc3c2ccn3CC(=O)NCc2cccnc2)cc1 | 823 |
| Cn1nc(C(=O)N2CCC(C(=O)N3CCCC3)CC2)c2c1CCN(C(=O)Cc1ccc(F)cc1)C2 | 679 |
| O=C(Nc1cccc(F)c1)c1c(O)c2cccnc2n(-c2ccccc2)c1=O | 1230 |
| Cc1ccc(C)c(NC(=O)CN2C(=O)NC3(CCC(C)CC3)C2=O)c1 (configuration not stated) | 777 |
| O=C(NCC(F)(F)F)C1CCN(C(=O)c2c(F)cccc2Cl)CC1 | 686 |

| SMILES | RP-LC retention time [s] |
| --- | --- |
| CCC(=O)N(C1CCOCC1)C1CCN(S(=O)(=O)c2cccnc2)CC1 | 807 |
| CC(C)(C)C(=O)NCc1cccnc1-c1ccc(F)cc1 | 614 |
| CC(C)(C)c1ccc(-c2nc(N3CCOCC3)c3ccccc3n2)cc1 | 821 |
| COc1nn(C)cc1C(=O)Nc1nnc(C2CC(=O)N(c3ccccc3)C2)o1 (configuration not stated) | 610 |
| Cc1cccc2nnc(N3CCCC(C(=O)Nc4ccc5c(c4)OCO5)C3)n12 (configuration not stated) | 664 |
| CCN(CCN(C)C)c1ccc(C(=O)O)cc1NS(=O)(=O)c1ccccc1Cl | 582 |
| O=C(NCc1ccccc1Cl)C1CCCN(C(=O)c2cc(-c3ccccn3)n[nH]2)C1 (configuration not stated) | 680 |
| CCOC(=O)N1CCN(C(=O)Cc2c(C)nn(-c3nc(-c4ccccc4)cs3)c2C)CC1 | 998 |
| O=C(NCc1nnnn1C1CCCCC1)c1cccs1 | 715 |
| COc1ccc(NC(=O)c2ccc(N3C(=O)CCC3=O)cc2)c2ccccc12 | 691 |
| CC(C)NC(=O)C1CCN(c2nc3ccc(-c4ccc(F)cc4)nc3s2)CC1 | 752 |
| COC(=O)c1ccc2c(=O)n(Cc3cccc(OC)c3)c(N3CCN(c4ccccn4)CC3)nc2c1 | 741 |
| CC(C)C(=O)N1CCCC(c2nc(CCNC(=O)C3CCC3)cs2)C1 (configuration not stated) | 694 |
| CCCNc1cc(N2CCC(CCC(=O)N3CCN(c4ccccc4)CC3)CC2)ncn1 | 603 |
| CCNC(=O)N(CC(=O)N1CCc2sccc2C1COc1ccccc1)CC1CC1 (configuration not stated) | 857 |
| O=C(Nc1ccc2c(c1)OCCO2)C1CCN(S(=O)(=O)c2ccc3[nH]c(=O)ccc3c2)CC1 | 691 |
| Cn1cnc(S(=O)(=O)N2CCC(C(=O)NCc3ccc(F)cc3)CC2)c1 | 670 |
| COc1ccccc1NC(=O)N(C)CCc1noc(COc2ccc(Cl)cc2)n1 | 972 |
| Cc1ccc(NC(=O)C2CCN(C(=O)c3ncn4c3COC(c3ccc(F)cc3)C4)CC2)cc1F (configuration not stated) | 854 |
| COc1cccc(CNC(=O)C2CCCN(C(=O)c3[nH]c(C)c(C(=O)OC(C)C)c3C)C2)c1 (configuration not stated) | 845 |
| Cc1cc(N2CCC(C)CC2)n2nc(CN3CCN(C(C)C)CC3)nc2n1 | 590 |
| N#Cc1ccc(NC(=O)C2CCCN(S(=O)(=O)c3cc(-c4noc(C5CCC5)n4)cs3)C2)cc1 (configuration not stated) | 1120 |
| O=C(c1ccccn1)N1CCCCC1c1nncn1CC1CC1 (configuration not stated) | 608 |

Second part, the compound after the results:

| RP-LC retention time [s] | SMILES |
| --- | --- |
| 1250 | CCOc1ccc(-c2cc3c(=O)n(Cc4nc(-c5cccc(C(F)(F)F)c5)no4)ncn3n2)cc1 |
| 606 | CCC(=O)NCc1nc2c(n1CC)CN(C(=O)c1ccc(Br)cc1)CC2 |
| 767 | O=C(Cn1c(=O)nc(NC2CCCC2)c2ccccc21)Nc1cc(F)cc(F)c1 |
| 832 | O=C(NC1CCCCC1)C1CCCN(c2ccc3cc(S(=O)(=O)N4CCCCC4)ccc3n2)C1 (configuration not stated) |
| 864 | Cc1cc(C)cc(N2CCC(NC(=O)Cc3ccc(F)cc3)C2=O)c1 (configuration not stated) |
| 642 | COc1ccc(OC)c(NC(=O)N2CCN(CCn3c(C(F)(F)F)nc4cccnc43)CC2)c1 |
| 684 | Cc1cc(C)c(NC(=O)Cn2nc3n(c2=O)CCCC3)c(C)c1 |
| 767 | CCN(CC)C(=O)c1cc2c(s1)CCC(C(=O)Nc1ccc(N3CCOCC3)cc1)C2 (configuration not stated) |
| 763 | Cc1cccc(C(=O)N2CCC3(CC2)NC(=O)c2ccc(F)cc2N3C)c1 |
| 615 | CCC1CN2C=NC(N3CCN(C(=O)NCc4cccc(F)c4)CC3)=CC2=N1 (configuration not stated) |
| 845 | Cc1nc(CCNS(=O)(=O)c2ccc(Oc3ccccc3)cc2)cs1 |
| 559 | CNc1cc(C(N)=O)c2cccc(Cl)c2n1 |
| 1150 | Cc1ccccc1-c1noc(CN2C(=O)COc3cc(Cl)ccc32)n1 |
| 618 | Cc1nn(-c2cc(N3CCOCC3)ncn2)c(C)c1CCC(=O)N1CCN(c2ccccn2)CC1 |
| 520 | CCOc1ccccc1CN1CC(CO)C2(CCNCC2)C1 (configuration not stated) |
| 849 | COc1cc(NC(=O)N2CCCC2c2nc(-c3ccccc3OC)no2)cc(OC)c1 (configuration not stated) |
| 717 | Cc1cc(N2CCN(S(=O)(=O)c3cc(F)ccc3F)CC2)nc(N2CCCC2)n1 |
| 778 | Cn1ccc2ccn(CC(=O)NCc3ccccc3Br)c(=O)c21 |
| 618 | COc1cc(OC)c(NC(=O)N2CCN(CCn3c(C(C)C)nc4cccnc43)CC2)cc1Cl |
| 648 | COCc1cn(CC2CCCN(Cc3cn(C(C)C)c4ccc(OC)cc34)C2)nn1 (configuration not stated) |

| RP-LC retention time [s] | SMILES |
| --- | --- |
| 716 | Cc1nc(-c2ccccc2)nn1C1CCN(S(=O)(=O)c2cccnc2)C1 (configuration not stated) |
| 1210 | Cc1sc(-c2nc(-c3ccccc3)no2)cc1S(=O)(=O)N1CCN(c2ncccn2)CC1 |
| 563 | COCC1(O)CCOC2(CCN(Cc3ccc(F)cc3Cl)CC2)C1 (configuration not stated) |
| 768 | CC(C(=O)Nc1ccccc1C(F)(F)F)n1cnc2nc3c(cc2c1=O)CCCC3 (configuration not stated) |
| 816 | Cc1ccc(S(=O)(=O)N2CC(F)(F)C[C@H]2CN2CCc3ccccc3C2)c(C)c1 |
| 788 | Cc1noc(C)c1C(=O)N1CC(c2nc(CCOC3CCCC3)no2)C1 |
| 851 | COc1ccc(S(=O)(=O)N2CCN(c3cc(C)nc(NC4CCCCC4)n3)CC2)cc1Cl |
| 973 | O=S(=O)(c1ccc(F)c(Cl)c1)N1CCC(OCc2noc(C3CCCO3)n2)CC1 (configuration not stated) |
| 864 | CSc1ccc(NC(=O)C2CCN(C(=O)c3ncn4c3COC(c3ccc(F)cc3)C4)CC2)cc1 (configuration not stated) |
| 791 | CN1C(=O)c2cc(C(=O)NCc3ccc(F)cc3)nn2CC1(C)C(=O)NC1CCCCC1 (configuration not stated) |
| 909 | COc1ccc(OC)c(NC(=O)C(=O)c2ccc[nH]2)c1 |
| 740 | COc1cccc(S(=O)(=O)N2CCOCCNC(=O)[C@@H]3CCC[C@@H]32)c1 |
| 726 | COCCCNC(=O)c1cc(-c2ccc(F)cc2)c[nH]1 |
| 573 | CCOC(=O)c1c(C)c(CCC(=O)NCCN2CCCCC2)c(C)n1C |
| 868 | O=S(=O)(c1ccc(Cl)s1)N1CCC(c2nnc(-c3ccco3)o2)CC1 |
| 648 | Cc1ccc2oc(N3CCCN(C(=O)c4ccc(-c5noc(C6CC6)n5)cc4)CC3)nc2n1 |
| 764 | CC1(C(=O)NCc2ccc(F)cc2)CN(S(C)(=O)=O)CC(=O)N1c1cccc(F)c1 (configuration not stated) |
| 908 | CC1CCCN(c2ccc(-c3noc(CN4CCN(c5ccccn5)CC4)n3)cn2)C1 (configuration not stated) |
| 692 | CCN1C(=O)C2CC3(CCN(C(=O)CC(C)C)CC3)CN2C1=O (configuration not stated) |
| 1060 | CC(C)CNC(=O)N1CC(Oc2ccc(-c3nc(-c4ccccc4)no3)cc2)C1 |

— the METLIN SMRT retention time set (Domingo-Almenara et al. 2019)
